{"source": "paper PMC9239083", "about": "“C6 Hydroxymethyl-Substituted Carbapenem MA-1-206 Inhibits the Major Acinetobacter baumannii Carbapenemase OXA-23 by Impeding Deacylation” (mBio, 2022)", "target": "OXA-23 (Acinetobacter baumannii, UniProt Q9L4P2)", "sequence (Q9L4P2 18-273)": "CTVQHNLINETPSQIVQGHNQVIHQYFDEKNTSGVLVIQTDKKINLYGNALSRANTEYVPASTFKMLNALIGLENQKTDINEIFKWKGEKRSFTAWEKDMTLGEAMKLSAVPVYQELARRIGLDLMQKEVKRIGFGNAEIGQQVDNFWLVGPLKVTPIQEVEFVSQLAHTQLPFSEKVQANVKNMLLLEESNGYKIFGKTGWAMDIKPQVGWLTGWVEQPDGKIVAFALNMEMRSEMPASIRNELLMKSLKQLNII", "assay": "X-ray crystal structures (seven soak time points); Ki by nitrocefin competition kinetics with purified enzyme", "format": "biochemical", "description": "X-ray crystal structures (seven soak time points); Ki by nitrocefin competition kinetics with purified enzyme on OXA-23 | The compound is covalently attached to the Ser79 side chain and anchored by six hydrogen bonds."}
{"compound": "CN(C)C(=O)[C@@H]1C[C@H](SC2=C(C(=O)O)N3C(=O)[C@H](CO)[C@H]3C2)CN1", "note": "[MA-1-206]", "values": [{"measurement": "Ki", "value": "26 ± 2", "unit": "nM"}]}
